Data reported in patent US20250281460A1, “PEGYLATED BILIRUBIN FOR THE TREATMENT OF […], OBESITY, FATTY LIVER DISEASE, CARDIOVASCULAR DISEASES AND TYPE II DIABETES” (The University of Toledo, priority 2019, published 2025).
Entries after “also recorded” stand apart in the source; their conditions may differ.

How the values were obtained:
[1] = molecular target: T1, PPARα (Mus musculus, UniProt P23204)
T1 sequence (P23204 1-468): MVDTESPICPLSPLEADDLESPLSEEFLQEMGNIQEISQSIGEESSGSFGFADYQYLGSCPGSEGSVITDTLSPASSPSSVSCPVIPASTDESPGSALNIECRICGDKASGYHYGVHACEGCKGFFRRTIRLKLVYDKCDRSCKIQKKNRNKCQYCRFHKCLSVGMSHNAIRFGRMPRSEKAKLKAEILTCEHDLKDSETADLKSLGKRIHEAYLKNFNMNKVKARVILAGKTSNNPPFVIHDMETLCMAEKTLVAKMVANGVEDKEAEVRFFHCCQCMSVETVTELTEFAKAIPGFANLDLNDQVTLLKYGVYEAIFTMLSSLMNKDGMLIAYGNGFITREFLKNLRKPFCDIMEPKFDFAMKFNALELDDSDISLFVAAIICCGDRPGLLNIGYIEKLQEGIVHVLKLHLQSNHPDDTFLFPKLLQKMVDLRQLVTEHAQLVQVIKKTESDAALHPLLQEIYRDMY
Experimental: Cells were crosslinked with formaldehyde with a final concentration of 1% in media while shaking at room temperature for 10 min. The activity of the formaldehyde was quench with the addition of glycine while rocking for 5 min at room temperature. Cells were washed twice with 1×PBS, collected into a 15 ml conical tube and spun down at 3,000 rpm for 5 min. Pellets were rapidly frozen on dry ice ethanol mix and stored at −80° C. for a minimum of 1 hour or immediately resuspended in a series of lysis buffers (see table for ChIP buffer table) containing protease inhibitors for 5 min. Cells were sonicated for approximately 8 min per sample. The lysates were centrifuged for 10 min at 4° C. at 13,000 rpm. The lysates were pre-cleared in BSA/Salmon sperm blocked beads rotating for 2 hours at 4° C. […] Lysates were then incubated with Agarose A beads and rotated for 4 hours at 4° C. The samples were then washed with a ChIP washing buffer (see table for ChIP buffer table) 5 times. The protein was eluted in an Elution buffer at 65° C. for 30 min shaking every 2 min. The eluted samples were transferred to another tube and incubated at 65° C. overnight to reverse crosslinking. The samples were purified after 1-hour incubation with Proteinase K at 55° C. with a isopropanol/chloroform/ethanol mixture. DNA was quantified on a NanoDrop 2000 spectrophotometer (Thermo Fisher Scientific, Wilmington, DE). PCR amplification of the genomic DNA was performed by quantitative real-time PCR using TrueAmp SYBR Green qPCR SuperMix (Advance Bioscience). The thermocycling protocol consisted of 2 min at 50° C. and then 10 min at 95° C., 48 cycles of 30 sec at 95° C., 1 min at 65° C.

[2] = system: BAT cells; assay: Real-time PCR in differentiated BAT cells; assay type: cell-based, murine; details: 50 μM biliverdin, 50 μM WY14,463, 10 μM rosiglitazone, 24 hrs
Experimental: Total RNA was extracted from mouse tissues using the miRNeasy Mini Kit (Qiagen). Total RNA was read on a NanoDrop 2000 spectrophotometer (Thermo Fisher Scientific, Wilmington, DE) and cDNA was synthesized using High Capacity cDNA Reverse Transcription Kit (Applied Biosystems). PCR amplification of the cDNA was performed by quantitative real-time PCR using TrueAmp SYBR Green qPCR SuperMix (Advance Bioscience). The thermocycling protocol consisted of 3 min at 95° C., 48 cycles of 15 sec at 95° C., 30 sec at 60° C., and based on primer size 0 to 30 sec at 72° C. and finished with a melting curve ranging from 60-95° C. to allow distinction of specific products. Normalization was performed in separate reactions with primers to 36B4.

[3] = system: 3T3-Vector cells; assay: SeaHorse mitochondrial respiration in 3T3-Vector cells; assay type: cell-based, mouse; details: lentiviral empty vector control cells
Text: (§1) To investigate the specific role of bilirubin on PPARα or PPARγ as well as mitochondrial function and gene regulation, 3T3-LI cells that overexpressed each receptor (3T3-PPARα or 3T3-PPARγ2) were generated via lentivirus (FIGS. 2A-2B). […] The 3T3-Vector cells had no responses to biliverdin in FIGS. 2A-2B.
(§2) Cellular respiration was quantified using the Seahorse Extracellular Flux Analyzer XF-96 (Agilent Technologies, Cedar Creek, TX). The Seahorse XF Cell Mito Stress Test Kit (Agilent Technologies, Cat #103015-100) was used for analysis of cellular respiration. BAT or 3T3-L1 cells were seeded on a XF96 cell culture microplate (Agilent 101085-004) at 20,000 cells per well. Cells were then differentiated as previously described for 9 days. […] The oxygen consumption rate (OCR) and extracellular acidification rate (ECAR) were used to quantify the cellular energy phenotype of the cells. After treatment, cells were washed twice with Seahorse Bioscience Assay Media (XF Base media with 25 mM Glucose, 2 mM […], and 1 mM Sodium Pyruvate) then incubated with the buffer for 1 hour in a non-CO2 incubator. The Seahorse Cartridge ports were loaded with […] of assay media with […] FCCP, 10 μM Oligomycin, 5 μM Rotenone/Antimycin A in different ports an hour before assay. […] The raw data and graphs were supplied as an Excel File or Graphpad Prizm file.

[4] = system: 3T3-PPARγ2 cells; assay: SeaHorse mitochondrial respiration and gene activity in 3T3-PPARγ2 cells; assay type: cell-based, mouse; details: 3T3-L1 cells overexpressing PPARγ2
Text: as §1, §2

[5] = system: BAT cells; assay: SeaHorse analysis in murine BAT cell line (wild-type); assay type: cell-based
[6] = system: BAT cells; assay: Lipid accumulation over differentiation of BAT cells; details: increasing doses over the differentiation of the BAT cells
Text: Upon differentiation, cells were stained with Nile Red to visualize lipid content, and densitometry was used as a direct measure as previously described.

[7] = system: 3T3-L1 cells; assay: Adipogenesis assay, lipid accumulation (Nile Red) in 3T3-L1 cells; assay type: cell-based, mouse; details: over 9-day adipocytic differentiation
Experimental: Whether bilirubin decreases adiposity by enhancing mitochondrial function was evaluated. It was previously shown that bilirubin reduces lipid accumulation in adipocytes. However, it remained to be determined if this occurs by activation of PPARα to reduce adiposity, selective actions on PPARγ, or is a dual PPAR agonist, which together may mediate its glucose- and lipid-lowering effects. First, to determine if bilirubin enhances genes for mitochondrial function, 3T3-L1 cells, a WAT-type murine pre-adipocyte cell line that differentiates to full adipocytes, were treated with increasing concentrations of biliverdin, which is more soluble and is rapidly produced to bilirubin, over the 9-day adipocytic differentiation protocol.

In the case of C=CC1=C(C)/C(=C/C2=NC(=C\c3[nH]c(/C=C4\NC(=O)C(C)=C4C=C)c(C)c3CCC(=O)O)/C(CCC(=O)O)=C2C)NC1=O [biliverdin], the “PPARα occupancy at the 13K enhancer of the Ucp1” value ([1]; 50 μM, 24 hours) is reported as “significantly increased”, the “PPARα occupancy at the −3306 to −3109 region of the Cpt1 promoter” value ([1]; 50 μM, 24 hours) is reported as “significantly increased” and the “occupancy of PPARα at 13K enhancer of the Ucp1” value ([1]; BAT cells) is reported as “increased”. The “occupancy of PPARα at the Cpt1 promoter” value ([1]; BAT cells) was “increased”, the “occupancy of PPARα at the enhancer region of the Adrb3 promoter” value ([1]; BAT cells) was “intensified” and the “Adrb3 mRNA” value [2] was “significant increase; also recorded: only significantly higher”. For the same molecule, the “Ucp1 mRNA” value [2] was “significant increase”, the “responses (mitochondrial respiration)” value [3] was “no responses” and the gene related activity [4] was “did not have significant increase”. For the same molecule, the mitochondrial respiration [4] was “no significant changes”, the mitochondrial function ([5]; BAT cells) was “increasing” and the proton leak ([5]; BAT cells) was “stimulated”. For the same molecule, the ATP production ([5]; WT BAT cells, 24 hours) was “increased; also recorded: stimulated”, the “basal respiration (OCR)” value ([5]; WT BAT cells, 24 hours) was “increased” and the “maximum respiration (OCR)” value ([5]; WT BAT cells, 24 hours) was “increased; also recorded: significantly higher”. The lipid accumulation [6] was “no impact”, the lipid accumulation ([7]; 1 μM) was “did not reduce” and the lipid accumulation ([7]; 10 μM) was “significantly reduced”. For the same molecule, the lipid accumulation ([7]; 50 μM) was “significantly reduced” and the lipid accumulation ([7]; 50 μM, listed as Biliverdin) was “significantly reduced; also recorded: substantially decreased”.
